Results from patent publication US8362038B2, “1-isopropyl-2-oxo-1,2-dihydropyridine-3-carboxamide derivatives having 5-HT4 receptor agonistic activity” (Pfizer Inc., priority 2004, dated 2013).
Counter-ions that a name gives are not always drawn.

Columns and labels:
[1] = system: Caco-2 cells; test: Caco-2 permeability; format: in vitro ADME
Method: (§1) Caco-2 permeability was measured according to the method described in Shiyin Yee, Pharmaceutical Research, 763 (1997).
(§2) Caco-2 cells were grown on filter supports (Falcon HTS multiwell insert system) for 14 days. Culture medium was removed from both the apical and basolateral compartments and the monolayers were preincubated with pre-warmed 0.3 ml apical buffer and 1.0 ml basolateral buffer for 0.5 hour at 37° C. in a shaker water bath at 50 cycles/min. The apical buffer consisted of Hanks Balanced Salt Solution, 25 mM D-glucose monohydrate, 20 mM MES Biological Buffer, 1.25 mM CaCl2 and 0.5 mM MgCl2 (pH 6.5). The basolateral buffer consisted of Hanks Balanced Salt Solution, 25 mM D-glucose monohydrate, 20 mM HEPES Biological Buffer, 1.25 mM CaCl2 and 0.5 mM MgCl2 (pH 7.4). At the end of the preincubation, the media was removed and test compound solution (10 μM) in buffer was added to the apical compartment. The inserts were moved to wells containing fresh basolateral buffer at 1 hr. Drug concentration in the buffer was measured by LC/MS analysis.
(§3) Flux rate (F, mass/time) was calculated from the slope of cumulative appearance of substrate on the receiver side and apparent permeability coefficient (Papp) was calculated from the following equation. Papp(cm/sec)=(F*VD)/(SA*MD)
(§4) where SA is surface area for transport (0.3 cm^2), VD is the donor volume (0.3 ml), MD is the total amount of drug on the donor side at t=0. All data represent the mean of 2 inserts. Monolayer integrity was determined by Lucifer Yellow transport.

[2] = Caco-2 permeability; format: in vitro ADME; conditions: human, Caco-2; apical pH 6.5 to basolateral pH 7.4, 10 μM, mean of 2 inserts; read-out: Caco2 Permeability [Papp]
Method: as §1, §2, §3, §4

[3] = biological target: T1, Human 5-HT4(d) (Homo sapiens, UniProt Q13639); test: Human 5-HT4 binding ([3H]-GR113808 displacement, SPA); conditions: for Ki: membranes of human 5-HT4(d) transfected HEK293 cells, [3H]-GR113808 0.2 nM
T1 construct: expressed in transfected cells; host or cells: HEK293
T1 sequence (Q13639 1-360 isoform Q13639-3): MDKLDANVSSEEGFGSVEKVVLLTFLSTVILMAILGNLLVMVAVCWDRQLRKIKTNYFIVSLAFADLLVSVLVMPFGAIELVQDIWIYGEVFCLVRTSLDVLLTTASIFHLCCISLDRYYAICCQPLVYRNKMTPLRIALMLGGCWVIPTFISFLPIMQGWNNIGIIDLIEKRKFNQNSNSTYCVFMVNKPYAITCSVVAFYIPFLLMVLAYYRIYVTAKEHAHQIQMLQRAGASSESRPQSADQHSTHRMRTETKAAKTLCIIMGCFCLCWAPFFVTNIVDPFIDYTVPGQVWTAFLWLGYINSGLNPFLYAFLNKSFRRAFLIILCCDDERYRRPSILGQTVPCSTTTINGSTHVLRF
Method: The 5-HT4 receptor binding affinities of the compounds of this invention are determined by the following procedures.
Human 5-HT4(d) transfected HEK293 cells were prepared and grown in-house. The collected cells were suspended in 50 mM HEPES (pH 7.4 at 4° C.) supplemented with protease inhibitor cocktail (Boehringer, 1:1000 dilution) and homogenized using a hand held Polytron PT 1200 disruptor set at full power for 30 sec on ice. The homogenates were centrifuged at 40,000×g at 4° C. for 30 min. The pellets were then resuspended in 50 mM HEPES (pH 7.4 at 4° C.) and centrifuged once more in the same manner. The final pellets were resuspended in an appropriate volume of 50 mM HEPES (pH 7.4 at 25° C.), homogenized, aliquoted and stored at −80° C. until use. An aliquot of membrane fractions was used for protein concentration determination using BCA protein assay kit (PIERCE) and ARVOsx plate reader (Wallac).
For the binding experiments, 25 μl of test compounds were incubated with 25 μl of [^3H]-GR113808 (Amersham, final 0.2 nM) and 150 μl of membrane homogenate and WGA-SPA beads (Amersham) suspension solutions (10 μg protein and 1 mg SPA beads/well) for 60 minutes at room temperature. Nonspecific binding was determined by 1 μM GR113808 (Tocris) at the final concentration. Incubation was terminated by centrifugation at 1000 rpm. Receptor-bound radioactivity was quantified by counting with MicroBeta plate counter (Wallac).

| SMILES | melting point | also measured |
| --- | --- | --- |
| Cc1c(Cl)cc(C(=O)NCC2CCN(CC3(O)CCCCC3)CC2)c(=O)n1C(C)C [Example 7, 5-Chloro-N-({1-[(1-Hydroxycyclohexyl)Methyl]Piperidin-4-Yl}Methyl)-1-Isopropyl-6-Methyl-2-Oxo-1,2-Dihydropyridine-3-Carboxamide] | 187 °C (dec.) | – |
| CCCCN1CCC(CNC(=O)c2cc(Cl)c(N)n(C)c2=O)CC1 [Compound A] | – | permeability against caco2 membrane (in words) [1]: low permeability; Papp A→B at 10 μM [2]: 0.2 ×10⁻⁶ cm/s; affinity / binding activity to 5-HT4 receptor (in words) [3]: weak affinity; Ki [3]: > 500 nM |
| Cc1c(Cl)cc(C(=O)NCC2CCN(CC3(O)CCOCC3)CC2)c(=O)n1C(C)C (as salt: hydrochloride) [Example 1, 5-Chloro-N-({1-[(4-hydroxytetrahydro-2H-pyran-4-yl)methyl]piperidin-4-yl}methyl)-1-isopropyl-6-methyl-2-oxo-1,2-dihydropyridine-3-carboxamide] | 283 °C (dec.) | – |
| Cc1c(Cl)cc(C(=O)NCC2CCN(CC3(O)CCOCC3)CC2)c(=O)n1C(C)C [Example 1, 5-Chloro-N-({1-[(4-hydroxytetrahydro-2H-pyran-4-yl)methyl]piperidin-4-yl}methyl)-1-isopropyl-6-methyl-2-oxo-1,2-dihydropyridine-3-carboxamide] | – | Papp A→B at 10 μM [2]: 5.3 ×10⁻⁶ cm/s; Ki [3]: 10.9 nM |
| Cc1c(F)cc(C(=O)NCC2CCN(CC3(O)CCOCC3)CC2)c(=O)n1C(C)C [Example 5, 5-Fluoro-N-({1-[(4-hydroxytetrahydro-2H-pyran-4-yl)methyl]piperidin-4-yl}methyl)-1-isopropyl-6-methyl-2-oxo-1,2-dihydropyridine-3-carboxamide] | 133 °C (dec.) | – |
| Cc1cc(C(=O)NCC2CCN(CC3(O)CCOCC3)CC2)c(=O)n(C(C)C)c1C (as salt: salt) [Example 3, N-({1-[(4-Hydroxytetrahydro-2H-pyran-4-yl)methyl]piperidin-4-yl}methyl)-1-isopropyl-5,6-dimethyl-2-oxo-1,2-dihydropyridine-3-carboxamide] | 178 °C (dec.) | – |
| Cc1c(Br)cc(C(=O)NCC2CCN(CC3(O)CCOCC3)CC2)c(=O)n1C(C)C (as salt: salt) [Example 4, 5-Bromo-N-({1-[(4-hydroxytetrahydro-2H-pyran-4-yl)methyl]piperidin-4-yl}methyl)-1-isopropyl-6-methyl-2-oxo-1,2-dihydropyridine-3-carboxamide] | 205 °C (dec.) | – |

Continued, in another order:

| melting point | SMILES | also measured |
| --- | --- | --- |
| 168 °C (dec.) | Cc1c(Cl)cc(C(=O)NCC2CCN(CC3CCCCC3)CC2)c(=O)n1C(C)C [Example 6, 5-Chloro-N-{[1-(cyclohexylmethyl)piperidin-4-yl]methyl}-1-isopropyl-6-methyl-2-oxo-1,2-dihydropyridine-3-carboxamide] | – |
| 123 °C (dec.) | CCc1c(Cl)cc(C(=O)NCC2CCN(CC3(O)CCOCC3)CC2)c(=O)n1C(C)C (as salt: salt) [Example 2, 5-Chloro-6-ethyl-N-({1-[(4-hydroxytetrahydro-2H-pyran-4-yl)methyl]piperidin-4-yl}methyl)-1-isopropyl-2-oxo-1,2-dihydropyridine-3-carboxamide] | – |
